From patent US12065421B2, “Inhibitors of oplophorus luciferase-derived bioluminescent complexes” (priority 2018, dated 2024)

Key:
NanoLuc = NanoLuc (Oplophorus gracilirostris, UniProt Q9GV45, A31E/A60N/A81I/F95D/I117V/K70R/L54V/L99Q/M102K/N193R/P142E/Q151K/Q38R/Q45L/V71I/Y165I); experiment: NANOLUC® (Nluc) inhibitory activity (FIG. 2); type: biochemical; conditions: Nluc 2 ng/ml in NanoGlo® buffer, 100 μM furimazine
Procedure: FIG. 2 compares the NANOLUC® (Nluc) inhibitory activity of exemplary compounds of the present invention to PBI-6096, a known Nluc inhibitor. Inhibitors were diluted into CO2-independent media with 10% FBS. Nluc was diluted to 2 ng/ml into NanoGlo® buffer with 100 μM furimazine. Serial dilutions of the inhibitors were added to the NanoLuc/furimazine/NanoGlo® solution, and samples were immediately analyzed using a GloMax®-Multi+ Plate Reader.

[1] = test system: NanoBiT® HiBit/LgBit bioluminescent complex; type: cell-based, Oplophorus gracilirostris; conditions: HEK293 cells, optionally lysed with 50 ug/mL digitonin
Procedure: In FIG. 3B, HEK293 cells were transfected with DNA encoding an intracellular NanoBiT® HiBiT fusion protein and DNA encoding an intracellular NanoBiT® LgBiT fusion protein such that the fusion proteins were co-expressed within the cell. Transfected cells were plated at 20,000 cells/100 μL growth medium and incubated for 24 hours. Following 24 hours of expression, cells were optionally lysed with 50 ug/mL of digitonin in OptiMEM and treated with serial dilutions of HL-0005. After 2 hours of incubation at room temperature, furimazine was added (10 μM final concentration), and luminescence was measured on a GloMax® Multi+ Plate Reader.

[2] = test system: NanoBiT® HiBit/LgBit bioluminescent complex; experiment: Inhibition of bioluminescent complex in lysed HEK293 cells expressing HiBiT fusion plus purified LgBiT (FIG. 3A); type: cell-based, Oplophorus gracilirostris; conditions: HEK293 cells lysed with digitonin, purified LgBiT added, 2 hours, 10 μM furimazine
Procedure: FIGS. 3A-3B show the inhibition of bioluminescent complexes in cells. In FIG. 3A, HEK293 cells were transfected with DNA encoding an intracellular NanoBiT® HiBiT fusion protein, plated at 20,000 cells/100 μL growth medium, and incubated for 24 hours. Following 24 hours of expression, cells were lysed with 50 ug/mL (final) of digitonin in OptiMEM and treated with purified NanoBiT® LgBiT non-luminescent polypeptide and serial dilutions of HL-0005. After 2 hours of incubation at room temperature, furimazine was added (10 μM final concentration), and luminescence was measured on a GloMax®-Multi+ Plate Reader.

NanoLuc, sequence (Q9GV45 28-196 with tags or gaps with the stated changes limits assumed): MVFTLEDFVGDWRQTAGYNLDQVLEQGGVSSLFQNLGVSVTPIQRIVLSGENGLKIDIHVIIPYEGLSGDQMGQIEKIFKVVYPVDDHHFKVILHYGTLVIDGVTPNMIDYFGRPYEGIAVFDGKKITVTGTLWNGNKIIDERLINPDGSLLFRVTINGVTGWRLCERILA

| SMILES | inhibition against NanoLuc (NanoLuc) | cell permeability (IC50 values in lytic and non-lytic conditions compared) [1] | inhibition of HiBit/LgBit bioluminescent complex in a cellular context [2] |
| --- | --- | --- | --- |
| Cc1ccc(S(=O)(=O)Nc2ccccc2C(=O)Nc2cc3ccccc3s2)cc1 [HL-0005, N-(benzo[b]thiophen-2-yl)-2-((4-methylphenyl)sulfonamido)benzamide] | do not show any appreciable inhibition | mostly cell permeable | inhibition |
| N#Cc1c(NC(=O)c2ccccc2NS(=O)(=O)c2ccccc2)sc2c1CCC2 [HL-0010, N-(3-cyano-5,6-dihydro-4H-cyclopenta[b]thiophen-2-yl)-2-(phenylsulfonamido)benzamide] | do not show any appreciable inhibition | – | – |
| Cc1ccc(S(=O)(=O)Nc2ccccc2C(=O)Nc2sc3c(c2C#N)CCCC3)cc1 [JRW-1004, N-(3-cyano-4,5,6,7-tetrahydrobenzo[b]thiophen-2-yl)-2-((4-methylphenyl)sulfonamido)benzamide] | do not show any appreciable inhibition | – | – |
